The data set in a line: Human HepG2 cell viability assay in 384 well format. The note with it: HepG2 cells, read-out: Inhibition. The format is toxicity, cell-based. Also noted: dose 125 nL, time 70.5 hour; cytotoxicity at 70.5 h: concentration not given beside the values.

In the case of `Cc1cccc(NC(=O)N2Cc3c(CN(C)C)nn(C)c3C2)c1`, the cytotoxicity at 70.5 h was -3.74%.
The result for `O=C(c1ccnnc1)N1CCCn2nnc(COCC3CC3)c2C1` reads 6.34%; that for `COCc1nnn2c1CN(C(=O)c1c[nH]cn1)CCC2`, 0.823%.
The result for `O=S(=O)(C1CC1)N1CCc2ncc(Cn3cccn3)n2CC1` reads -1.43%; that for `O=C(c1ccsc1)N1CCc2nnc(COc3cncnc3)n2CC1`, 26.7%; that for `O=C(c1cccs1)N1CCc2nnc(COc3cncnc3)n2CC1`, 14.1%.
On to `O=C(c1ncn2c1CNS(=O)(=O)c1ccccc1-2)N1CCOCC1`, for which the cytotoxicity at 70.5 h was 13.4%.
The result for `O=C(Cc1cccs1)N1CCc2nnc(COc3cncnc3)n2CC1` reads 14.8%; that for `O=C(c1ccc2[nH]ccc2c1)N1Cc2nc(CN3CCCC3)oc2C1`, -5.17%; that for `CC(=O)N1C[C@H]2C3(CCN(S(C)(=O)=O)CC3)CC[C@@]2(C(=O)N(C)C)C1`, -8.99%.
The result for `Cc1cnc(N2CCOC3(CCCN(C(=O)C(C)C)C3)C2)nc1` (stereo not given) reads -3.83%; that for `Cn1ccc(CN2CCCC23CCNCC3)n1`, -5.64%; that for `COCCN1C=NC2(CCC(C(=O)Nc3ccc(C)cc3)CC2)C1=O` (stereo not given), -3.77%.
In the case of `CCS(=O)(=O)N1CCC2(CC1)CC[C@@]1(C(=O)NC)CN(C(C)=O)C[C@@H]21`, the cytotoxicity at 70.5 h is 11%.
Take `CCS(=O)(=O)N1Cc2c(Cn3ccnc3)nn(C(C)C)c2C1`: the cytotoxicity at 70.5 h was 10.4%.
The result for `CCOc1ncnc2c1CCN(S(=O)(=O)CC)CC2` reads 14.3%; that for `O=C(NC1CCc2[nH]c(=O)ccc2C1)C1CCOCC1` (stereo not given), 13.7%; that for `CCOc1ncnc2c1CCN(S(=O)(=O)C1CC1)CC2`, 14%.
The result for `CN(C)C(=O)COCC1C[C@@H]2OCCN(Cc3ccco3)[C@H]2C1` (stereo not given in full) reads -15.5%; that for `Cc1ccc(N2Cc3c(CN(C)C)nn(C)c3C2)nn1`, -14.2%; that for `OCCOCc1n[nH]c2c1CN(Cc1cccs1)C2`, -2.23%.
As to `O=C(NCC1CC[C@@]2(CNCCOC2)O1)c1cccnc1` (stereo not given in full), the cytotoxicity at 70.5 h was -2.12%.
The result for `CCS(=O)(=O)N1CCc2ncnc(C)c2CC1` reads -1.43%.
Turning to `CNC(=O)[C@@H]1COC[C@H]2CN(C(=O)COc3ccccc3)C[C@H]21`, the cytotoxicity at 70.5 h is -1.14%.
The result for `CN(C)C(=O)CN1CCC2(C1)CN(CC1CCOCC1)C2` reads -2.25%.
The result for `Cc1cccc(CN2C[C@@H]3OCCN(S(=O)(=O)N(C)C)[C@@H]3C2)n1` reads -6.13%.
The result for `O=C(c1nc2c(s1)CCCN2C(=O)C1CC1)N1CCOCC1` reads -6.48%; that for `c1ccc(-c2nnn3c2COC(CNCc2ccccn2)C3)cc1` (stereo not given), -5.4%.
In the case of `CNC(=O)[C@@H]1COC[C@H]2CN(C(=O)c3ccc(C)c(F)c3)C[C@H]21`, the cytotoxicity at 70.5 h is -6.14%.
The result for `CNC(=O)[C@@H]1C[C@H]2CN(C(=O)c3ccccn3)C[C@H]2N1C(C)C` reads 15.1%; that for `O=c1cc(Cn2cncn2)nc2n1CCCN(Cc1ccsc1)C2`, -11.7%.
The result for `Cc1ccc(CN2CCCn3c(nc(Cn4ccnc4)cc3=O)C2)o1` reads -6.14%.
The result for `O=C(N1CCOCC1)[C@@]12CCO[C@@H]1CCN(CC1CCC1)C2` reads -20.9%.
As to `O=C(N1CCOCC1)[C@@]12CCO[C@@H]1CCN(C1CCCC1)C2`, the cytotoxicity at 70.5 h was -15.6%.
The result for `O=C([C@@H]1CCO[C@@H]2CCN(CC3CC3)C[C@H]21)N1CCCCO1` reads 42.7%.
The result for `Cc1cccc(N2CCCC3(C2)CN(c2nncs2)CCO3)c1` (stereo not given) reads 16.1%; that for `Cc1cc(C(=O)N2CCn3cnc(COCC4CC4)c3C2)no1`, 0.0472%.
The result for `O=C(c1cscn1)N1CCn2cnc(COCC3CC3)c2C1` reads -4.79%; that for `Fc1cccc(N2CCOC3(CCCN(c4nncs4)C3)C2)c1` (stereo not given), -2.67%; that for `Cn1cc(C2CC3(CCN(C(=O)c4ccsc4)CC3)NC2=O)cn1` (stereo not given), -0.304%.
As to `Cc1ncsc1CN1CC[C@H]2OCC[C@@]2(C(=O)N2CCCO2)C1`, the cytotoxicity at 70.5 h was -2.27%.
The result for `Cn1cccc1C(=O)N1C[C@@H]2COC[C@]2(CNS(C)(=O)=O)C1` reads -1.05%.
The result for `CN(Cc1cn2c(n1)CN(C(=O)N(C)C)CC2)Cc1ccco1` reads -5.21%.
Take `CN(C)C(=O)N1CC[C@@H](O)[C@@H]1Cc1cnn(C)c1`: the cytotoxicity at 70.5 h was -1.6%.
`Cc1occc1C(=O)N1CCn2cnc(COCC3CC3)c2C1`: the cytotoxicity at 70.5 h is -0.838%.
The result for `Cn1ccc(CN2CCOCC23CCNCC3)n1` reads -6.05%; that for `O=C(c1ccncc1)N1CCCn2nnc(COCCO)c2C1`, -5%.
For the compound `O=C1COC2(CCN(Cc3ccco3)CC2)CN1CCn1cccn1`, the cytotoxicity at 70.5 h is -6.38%.
The result for `COc1cc(N2CCC3(CCCN3Cc3cnn(C)c3)CC2)ncn1` reads -3.32%.
The result for `Cc1nc(CN2C[C@@H]3CN(c4ncccn4)C[C@@H]3C2=O)cs1` reads -10.3%.
Consider `CCCN1CCCn2c(nc(CNC(=O)c3ccsc3)cc2=O)C1`, for which the cytotoxicity at 70.5 h was -3.68%.
Take `COCC1CC2(CCN(C(C)=O)CC2)CN1Cc1csc(C)n1` (stereo not given): the cytotoxicity at 70.5 h is -4.16%.
The result for `CCc1cnc(N2C[C@H]3CN(Cc4csc(C)n4)C(=O)[C@H]3C2)nc1` reads -8.61%; that for `CCN1CCCC12CCN(C(=O)c1nccn1C)CC2`, -7.36%; that for `Cn1ccnc1C(=O)N1CCC2(CCN2CC2CC2)C1` (stereo not given), 9.69%.
For the compound `CS(=O)(=O)N1C[C@H]2CCCN(Cc3ccsc3)[C@H]2C1`, the cytotoxicity at 70.5 h was determined as 13.4%.
On to `COCCN1CCCc2sc(C(=O)N3CCCN(C)CC3)nc21`, for which the cytotoxicity at 70.5 h came out at 11.7%.
The result for `COCc1n[nH]c2c1CN(Cc1cccs1)C2` reads -6.13%; that for `CC(C)CN1CC[C@@H]2[C@@H]1CCN2C(=O)N(C)C`, -11.8%; that for `CS(=O)(=O)N1C[C@H]2CCCN(Cc3cccs3)[C@H]2C1`, 6.54%.
The result for `Cn1nc(Cn2ccnc2)c2c1CN(c1ncccn1)C2` reads -4.86%; that for `CN1CCN(C(=O)c2nc3c(s2)CCCN3C(=O)C2CC2)CC1`, -3.93%.
The result for `CC(C)CN1CC[C@@H]2[C@@H]1CCN2C(=O)N1CCCC1` reads -3.86%; that for `Cc1nnn2c1COC(CNCc1ccccn1)C2` (stereo not given), -3.64%.
On to `CCCN1CCC2(CC1)COc1ccccc1S(=O)(=O)N(CC1CC1)C2`, for which the cytotoxicity at 70.5 h is -4.67%.
The result for `CC(C)NC(=O)N1CCN(CC2CC2)CC2(CNC(=O)C2)C1` (stereo not given) reads -17.7%.
Take `O=C([C@@H]1CCO[C@@H]2CCN(Cc3ccc(F)cc3)C[C@H]21)N1CCCCO1`: the cytotoxicity at 70.5 h was -24.4%.
The result for `O=C(N1CCOCC1)[C@@]12CCO[C@@H]1CCN(C1CCOCC1)C2` reads -4.69%; that for `O=C(N1CCOCC1)[C@@]12CCO[C@@H]1CCN(C1CCC1)C2`, 46%; that for `O=C(N1CCOCC1)[C@@]12CCO[C@@H]1CCN(CC1CCCC1)C2`, 49.2%.
The result for `Cc1cccc(CN2CCC3(CCCN(C(=O)c4ccoc4)C3)C2=O)n1` (stereo not given) reads -3.14%; that for `Cc1ccc(C(=O)N2CCn3cnc(COCC4CC4)c3C2)cn1`, -5.4%; that for `Cc1cccc(CN2CCC3(CCCN(C(=O)N(C)C)C3)C2=O)n1` (stereo not given), -3.06%.
Take `COc1ccc(S(=O)(=O)N2Cc3c(CN(C)C)nn(C)c3C2)cc1`: the cytotoxicity at 70.5 h is -3.13%.
The result for `CN(Cc1cn2c(n1)CN(C(=O)c1ccc[nH]1)CC2)Cc1ccco1` reads 0.342%.
The result for `Cc1cccc(CN2CCC3(CCCN(C(=O)NC(C)C)C3)C2=O)n1` (stereo not given) reads -5.48%; that for `Cc1ncsc1CN1CC[C@H]2OCC[C@@]2(C(=O)N2CCOCC2)C1`, -4.06%.
The result for `CS(=O)(=O)N1CCOCC2(CN(Cc3nccs3)CCO2)C1` (stereo not given) reads 15.5%.
Turning to `COCCN1CCN(Cc2c(C)noc2C)Cc2ccc(C)nc21`, the cytotoxicity at 70.5 h is -1.53%.
Turning to `CC(C)N1CCCn2c(nc(CNC(=O)c3nccn3C)cc2=O)C1`, the cytotoxicity at 70.5 h is -17.1%.
Regarding `CN(C)[C@H]1COC[C@@H]2CN(Cc3ccc4c(c3)OCO4)C[C@@H]21`, the cytotoxicity at 70.5 h was -3.62%.
The result for `Cc1cnc(N2CCOC3(CCCN(CC(=O)N(C)C)C3)C2)nc1` (stereo not given) reads -3.5%.
On to `CCOCC1CN(c2ccc(C)nn2)Cc2nn(CC)cc21` (stereo not given), for which the cytotoxicity at 70.5 h was -7%.
The result for `CN(C)C(=O)CN1CCC2(C1)CN(CC1CCOC1)C2` (stereo not given) reads 11.8%; that for `CNC(=O)CNC1CC2(CCN(c3ncccn3)CC2)c2ccccc21` (stereo not given), -9.1%; that for `CNC(=O)[C@@H]1C[C@H]2CN(c3ncccn3)C[C@H]2N1C(C)C`, -1.97%.
Consider `CN(C)C(=O)CN1CCOCC2(CCN(CC3CCOCC3)CC2)C1`, for which the cytotoxicity at 70.5 h was -7.63%.
The result for `COc1ncccc1CN1C[C@@H]2COC[C@]2(COCC(=O)N(C)C)C1` reads -6.1%.
With `Cc1ccc(C(=O)N2C[C@H]3CCC[C@@]3(COCc3ccncc3)C2)cn1`, the cytotoxicity at 70.5 h is -7.42%.
The result for `CN1CCn2c(-c3ccccc3)cnc2C12CCN(CC1CC1)CC2` reads -3.45%; that for `Cc1noc(C)c1CN1CCN(CCN(C)C)c2ncccc2C1`, -2.96%; that for `c1cc(CN2CCCC23CCCN(Cc2ccoc2)C3)ccn1` (stereo not given), -3.1%.
The result for `Cc1cccc(CN2CCn3cc(Cn4cccn4)nc3C2)n1` reads -12.9%.
The result for `COc1ncccc1CN1C[C@@H]2COC[C@]2(COc2cccnc2)C1` reads -13.7%; that for `CCN(CC)Cc1nc2c(o1)CN(C(=O)c1ccc3[nH]ccc3c1)C2`, -17%.

Source of the values: ChEMBL document CHEMBL3507680, “University of Dundee, Gates Library screen for HepG2 cell viability”.
